Source: patent US6887879B2, “Pharmaceutical combination of antiviral agents” (priority 1999, dated 2005)
Like-named read-outs stand apart in the source and are kept apart here. Values belong to the compound of their own block, whether it stands above or below them.

Key:
[1] = Cytotoxicity, [3H]-thymidine uptake, DU145; type: cell-based; conditions: human, DU145 cells
Protocol: (§1) The cellular toxicity of the BCH compounds were assessed on various cells using [^3H]-thymidine uptake. The various cells, including Molt-4, HT1080, DU-145, HepG 2 and HSF, were plated at a concentration of 1-2×10^3 cells per well (96 well plates). However, PHA-stimulated PBMCs were cultured at a concentration of 4×10^4. After a 24 hr incubation period, 10-fold serial diluted compounds (10^−4 M to 10^−10 M) were added to the culture medium and the cells were further incubated for 72 hrs. [^3H]-thymidine was added during the final 18 hr incubation period. After incubation with the [^3H]-thymidine, the cells were washed once with PBS, treated with trypsin it the cells were adherent, and then resuspended in water (hypotonic lysing of cells) The cellular extract was applied directly to a Tomtec Harvester 96. Using this instrument the extracted DNA is adsorbed onto filters, washed and the incorporated [^3H]-thymidine is then counted.

[2] = Cytotoxicity, [3H]-thymidine uptake, HSF; type: cell-based; conditions: human, human skin fibroblasts (HSF)
Protocol: as §1

[3] = Cytotoxicity, WST-1 cell viability assay; type: cell-based, human; conditions: human, CBMCs, MT-2, H9, Jurkat and U937 cells; WST-1 cell viability assay
Protocol: The cellular toxicity of the compounds was also tested by WST-1 staining through assessing proliferation of MT-2, H9, Jurkat, U937, and CBMCs. The established cell lines were cultured in RPMI medium in 96-well plates at a density of 5×10^4 cells/well while CBMCs were plated at a concentration of 0.5×10^6/well. A 10-fold serial diluted (10^−4−10^−7 M) compound was added at day zero. At day 4, the cells were passaged by changing half medium containing appropriately diluted compound. The cell activities were assessed at day 7 using the WST-1 reagent (Boehringer Mannheim) following the protocol provided by the supplier.

[4] = Cytotoxicity, [3H]-thymidine uptake, HT-1080; type: cell-based; conditions: human, HT-1080 cells
Protocol: as §1

HIV-1IIIB = assay: Anti-HIV-1 antiviral assay, laboratory strain HIV-1IIIB, RT activity in culture supernatants
Protocol: Most experiments were performed with a laboratory strain HIV-1III. […] The cells were incubated with virus using the indicated multiplicity of infection (MOI) for 2-3 hrs. The MOI used for each experiment was dependent upon the cell line and virus strain used, and was generally in the range of 0.005 to 0.5. For example, in assays performed using the established cell line MT-2, HIV-1IIIB at an MOI of 0.005 was used to infect cells. The unbound virus was then removed by washing the cells, followed by plating the cells into a 96-well plate. The infected cells were cultured in the presence of a serial concentrations of the test compound for 5-7 days. The anti-HIV-1 efficacy was determined by testing for HIV-1 RT activity in the cell culture supernatants. All assays were performed in duplicate and at least two independent experiments were performed. […] The susceptibilities of the HIV-1 variants to antiretroviral agents are expressed as the mean of the EC50 determinations.

[5] = Cytotoxicity, [3H]-thymidine uptake, HepG2; type: cell-based; conditions: human, HepG2 cells
Protocol: as §1

[6] = Cytotoxicity, [3H]-thymidine uptake, Molt-4; type: cell-based; conditions: human, Molt-4 cells
Protocol: as §1

wt HIV-1 RT [7] = target: T1, wt HIV-1 RT (Human immunodeficiency virus type 1 group M subtype B, UniProt P04585); assay: RT inhibition assay, RNA dependent DNA polymerase activity; type: biochemical
T1 construct: Wild type (wt) version of recombinant HIV-1 RT were expressed with a histidine tag; histidine tag; made in house; host or cells: E. coli
Protocol: Wild type (wt) version of recombinant HIV-1 RT were expressed with a histidine tag in an E. coli protein expression system.
RT inhibition assay. The inhibition of HIV-1 RT RNA dependent DNA polymerase activity of DXG-TP was assessed under steady-state enzymatic kinetics by employing homopolymeric RNA templates/DNA primers (T/P) and a heteropolymeric RNA template/DNA primer. The heteropolymeric RNA template contains the HIV-1 primer binding sequence, US and R regions (designated as HIV-PBS). […] The oligodeoxynucleotide primer (dPR) is an 18-mer (5′-[…]-3′) which is complementary to the HIV-1 primer binding sequence. […] The reverse transcription reaction contained final concentrations of 50 mM Tris-HCl, pH 7.8, 60 mM KCl, 10 mM MgCl2, 0.1 U/ml homopolymeric T/P and 5 μM [^3H]dNTP substrate or 25 nM HIV-PBS/dPR and 5 μM each of dTTP, dCTP, dGTP and [-^32P]dATP in […]. […] Inhibition of dNTP incorporation/chain termination. The effect of DXG-TP on RT activity was also assessed using the chain termination/dNTP incorporation assay in which inhibition of nascent DNA synthesis (chain termination) was monitored based upon cDNA synthesis as previously described (Arts et al., 1993; J. Biol. Hem. 269:14672-14680 and Gu et al., 1995, Proc. Natl. Acad. Sci. USA 92:2760-2764). HIV-PBS RNA template and dPR DNA primer were used in this system. The RT reactions were performed in […] containing 50 mM Tris (pH 7.8), 75 mM KCl, 10 mM MgCl2, 100 μM of dNTPs. The HIV-PBS RNA template (50 nM) and [−^32P]-ATP labeled oligodeoxynucleotide primer (125 nM) were included in the reaction. The mixture was first denatured at 85° C. for 2 minutes, then cooled to 55° C. for 8 min, and finally cooled to 37° C. at which time recombinant HIV RT was added (42.5 nM). The reactions were allowed to proceed at 37° C. for 60 min in the presence or absence of inhibitors. The transcribed DNA products were separated on a 5% denaturing polyacrylamide gel and visualized by exposure to X-ray film.

wt HIV-1 RT [8] = target: T1, wt HIV-1 RT; assay: Chain elongation/termination assay; type: biochemical; conditions: HIV-PBS template, dPR primer, raising inhibitor concentration
Protocol: RT inhibition assay. The inhibition of HIV-1 RT RNA dependent DNA polymerase activity of DXG-TP was assessed under steady-state enzymatic kinetics by employing homopolymeric RNA templates/DNA primers (T/P) and a heteropolymeric RNA template/DNA primer. The heteropolymeric RNA template contains the HIV-1 primer binding sequence, US and R regions (designated as HIV-PBS). […] The oligodeoxynucleotide primer (dPR) is an 18-mer (5′-[…]-3′) which is complementary to the HIV-1 primer binding sequence. […] Inhibition of dNTP incorporation/chain termination. […] HIV-PBS RNA template and dPR DNA primer were used in this system. The RT reactions were performed in […] containing 50 mM Tris (pH 7.8), 75 mM KCl, 10 mM MgCl2, 100 μM of dNTPs. […] The reactions were allowed to proceed at 37° C. for 60 min in the presence or absence of inhibitors. The transcribed DNA products were separated on a 5% denaturing polyacrylamide gel and visualized by exposure to X-ray film.
The chain elongation/termination assay provides a method to directly visualize the products of incorporation of dideoxynucleotide monophosphates into nascent DNA by monitoring the reaction products using polyacrylamide gel electrophoresis. The experiment was performed using wt HIV-1 RT, and HIV-PBS heteropolymeric template, and [^32p]ATP labeled dPR primer in the presence of various concentrations of RT inhibitor. […] As comparison, NNRTI nevirapine was also used in the assay.

[9] = tested on: HIV-1 clinical isolate 4877; assay: microbe, parasite or virus in culture; type: cell-based; conditions: Human immunodeficiency virus 1, read-out: EC50 in CBMCs
Protocol: (§2) HIV-1IIIB laboratory strain and HXB2-D recombinant of HIV-1 were kindly supplied by R. C. Gallo (Institute of Human Virology, Baltimore, Md.). […] The recombinant viruses were generated by transfection of proviral DNA into MT-4 cells with Lipofectamine using the protocol recommended by the manufacturer .(Gibco BRL, Montreal, Canada). […] Stock viruses were prepared from clarified culture supernatants by centrifugation and stored at −70° C. The viruses were titrated by limited dilution with a 4-fold serial dilution.
(§3) The population of HIV-1 in infected individual is quasispecies and the sensitivity of these different viruses found in clinical isolates to antiviral chemotherapy might be quite variable. In addition, HIV-1 isolates obtained from patients receiving long-term antiretroviral therapy might behave differently from cloned virus containing genetically engineered mutations in the RT gene. For these reasons, clinical isolates of HIV-1 from antiviral naive and drug-treated patients were assayed in PHA-stimulated CBMCs for their sensitivity to DXG and DAPD accompanied with approved antiretroviral agents. The genotype of the HIV-1 clinical isolates were determined as described above.

[10] = tested on: HIV-1 clinical isolate 4924; assay: microbe, parasite or virus in culture; type: cell-based
Protocol: as §2, §3

[11] = tested on: recombinant HXB2-D 106A/181C; assay: microbe, parasite or virus in culture; type: cell-based, HIV-1; conditions: Human immunodeficiency virus 1, HXB2, read-out: EC50 in CBMCs
Protocol: as §2

[12] = Cytotoxicity, [3H]-thymidine uptake, PBMC; type: cell-based; conditions: human, PHA-stimulated PBMCs
Protocol: as §1

EC50 (HIV-1IIIB; Human immunodeficiency virus 1, Jurkat, read-out: EC50, mean values ± SD): 11 ± 7 nM | EC50 (HIV-1IIIB; Human immunodeficiency virus 1, MT2, read-out: EC50, mean values ± SD): 7.6 ± 4.4 nM | EC50 (HIV-1IIIB; Human immunodeficiency virus 1, MT4, read-out: EC50, mean values ± SD): 8 ± 5 nM | EC50 (HIV-1IIIB; Human immunodeficiency virus 1, U-937): 25 nM | EC50 (HIV-1IIIB; Human immunodeficiency virus 1, read-out: EC50, mean values ± SD): 5.1 ± 3 nM
Compound: Cc1cn([C@H]2C[C@H](N=[N+]=[N-])[C@@H](CO)O2)c(=O)[nH]c1=O [AZT, zidovudine, reference compound]
CC50 at 72 h [1]: > 10000 nM | CC50 at 72 h [2]: > 10000 nM | CC50 at 7 days [3]: 74000 nM | CC50 at 72 h [4]: 5000 nM | CC50 at 72 h [5]: 3000 nM | CC50 at 72 h [6]: 3000 nM

Compound: Nc1nc2c(ncn2[C@H]2CC[C@@H](COP(=O)(O)OP(=O)(O)OP(=O)(O)O)O2)c(=O)[nH]1 [ddGTP, dideoxyguanosine triphosphate, reference compound]
IC50 (wt HIV-1 RT [7]; template/primer HIV-PBS/dPR, substrate dNTPs, each 5 μM): 74 ± 8 nM | IC50 (wt HIV-1 RT [7]; template/primer poly(rC).oligo(dG)12-15, substrate dGTP): 11 ± 0.7 nM

Compound: Cc1ccnc2c1NC(=O)c1cccnc1N2C1CC1 [nevirapine, reference compound]
chain termination / full-length products, in words (wt HIV-1 RT [8]): showed the decrease of the full-length DNA products, but there were no extra chain termination bands generated | EC50 [9]: 65 nM | EC50 ([10]; Human immunodeficiency virus 1): > 10000 nM | EC50 ([10]; Human immunodeficiency virus 1, read-out: EC50 in CBMCs): > 10000 nM | EC50 [11]: > 10000 nM

Compound: Nc1ccn([C@H]2CC[C@@H](CO)O2)c(=O)n1 [ddC, 2′,3′-dideoxycytidine]
CC50 at 72 h [1]: 5000 nM | CC50 at 72 h [12]: 32500 nM | CC50 at 7 days [3]: 29000 nM | CC50 at 72 h [4]: 2000 nM | CC50 at 72 h [5]: 7000 nM | CC50 at 72 h [6]: 2000 nM

Compound: (+) enantiomer of -D-1′,3′-dioxolane guanosine
EC50 (HIV-1IIIB; read-out: EC50, mean values ± SD, MT-2 cells, HIV-1IIIB): 700 nM
